Source: PubChem BioAssay (NCI)
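Growth conditions: 96-well plates. Treatment: test compound, 48 hours, 5 concentrations. Analysis: linear interpolation between bracketing concentrations; unreached endpoints set to highest concentration. TGI is the concentration that stops growth completely.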

Legend:
Experiment in all cases: NCI tumour cell line growth inhibition, 48 h
PC-3 prostate = tested on: PC-3 prostate
HCC-2998 colon = tested on: HCC-2998 colon
A549 NSCLC = tested on: A549 NSCLC
UACC-62 melanoma = tested on: UACC-62 melanoma
MOLT-4 leukemia = tested on: MOLT-4 leukemia
OVCAR-8 ovarian = tested on: OVCAR-8 ovarian
HOP-92 NSCLC = tested on: HOP-92 NSCLC
NCI-H522 lung = tested on: NCI-H522 lung
MDA-MB-435 = tested on: MDA-MB-435
UACC-257 melanoma = tested on: UACC-257 melanoma
ACHN renal = tested on: ACHN renal
OVCAR-5 ovarian = tested on: OVCAR-5 ovarian
SW-620 colon = tested on: SW-620 colon
IGROV1 ovarian = tested on: IGROV1 ovarian
SF-268 CNS = tested on: SF-268 CNS
HL-60(TB) leukemia = tested on: HL-60(TB) leukemia
SR leukemia = tested on: SR leukemia
HOP-62 NSCLC = tested on: HOP-62 NSCLC
SN12C renal = tested on: SN12C renal
RPMI-8226 leukemia = tested on: RPMI-8226 leukemia
T-47D breast = tested on: T-47D breast
CCRF-CEM leukemia = tested on: CCRF-CEM leukemia
LOX IMVI melanoma = tested on: LOX IMVI melanoma
DU-145 prostate = tested on: DU-145 prostate
OVCAR-4 ovarian = tested on: OVCAR-4 ovarian
SNB-19 CNS = tested on: SNB-19 CNS
COLO 205 colon = tested on: COLO 205 colon
786-0 renal = tested on: 786-0 renal
NCI-H460 lung = tested on: NCI-H460 lung
HS 578T breast = tested on: HS 578T breast
M14 melanoma = tested on: M14 melanoma
NCI/ADR-RES ovarian = tested on: NCI/ADR-RES ovarian
HCT-116 colon = tested on: HCT-116 colon
MDA-N = tested on: MDA-N
SF-295 CNS = tested on: SF-295 CNS
MCF7 breast = tested on: MCF7 breast
UO-31 renal = tested on: UO-31 renal
SNB-75 CNS = tested on: SNB-75 CNS
BT-549 breast = tested on: BT-549 breast
TK-10 renal = tested on: TK-10 renal
KM12 colon = tested on: KM12 colon
MDA-MB-231 breast = tested on: MDA-MB-231 breast
SF-539 CNS = tested on: SF-539 CNS
EKVX NSCLC = tested on: EKVX NSCLC
U251 CNS = tested on: U251 CNS
SK-MEL-5 melanoma = tested on: SK-MEL-5 melanoma
HT29 colon = tested on: HT29 colon
SK-MEL-28 melanoma = tested on: SK-MEL-28 melanoma
CAKI-1 renal = tested on: CAKI-1 renal
SK-MEL-2 melanoma = tested on: SK-MEL-2 melanoma
HCT-15 colon = tested on: HCT-15 colon
OVCAR-3 ovarian = tested on: OVCAR-3 ovarian
NCI-H23 lung = tested on: NCI-H23 lung
K-562 leukemia = tested on: K-562 leukemia
RXF 393 renal = tested on: RXF 393 renal
SK-OV-3 ovarian = tested on: SK-OV-3 ovarian
MALME-3M melanoma = tested on: MALME-3M melanoma
A498 renal = tested on: A498 renal

`CC1=CC(C)C(O)C(C)/C=C/C(O)C/C=C(/C)C(=O)CC(O)C(C)\C=C/C=C/C=C\C(=O)NC2=C(O)c3cc(C)c(O)c(c3C(=O)C2=O)C1=O` (stereo not given) gave a TGI (PC-3 prostate) of over 100 µM, a TGI (HCC-2998 colon) of over 100 µM and a TGI (A549 NSCLC) of over 100 µM. For the same compound, the TGI (UACC-62 melanoma) was over 100 µM, the TGI (MOLT-4 leukemia) was over 100 µM and the TGI (OVCAR-8 ovarian) was over 100 µM. It also gave a TGI (HOP-92 NSCLC) of over 100 µM, a TGI (NCI-H522 lung) of over 100 µM and a TGI (MDA-MB-435) of over 100 µM. For the same compound, the TGI (UACC-257 melanoma) was over 100 µM, the TGI (ACHN renal) was over 100 µM and the TGI (OVCAR-5 ovarian) was over 100 µM. The TGI (SW-620 colon) was over 100 µM, the TGI (IGROV1 ovarian) was over 100 µM and the TGI (SF-268 CNS) was over 100 µM. The TGI (HL-60(TB) leukemia) was over 100 µM, the TGI (SR leukemia) was over 100 µM and the TGI (HOP-62 NSCLC) was over 100 µM. The TGI (SN12C renal) was over 100 µM, the TGI (RPMI-8226 leukemia) was over 100 µM and the TGI (T-47D breast) was over 100 µM. It also gave a TGI (CCRF-CEM leukemia) of over 100 µM, a TGI (LOX IMVI melanoma) of over 100 µM and a TGI (DU-145 prostate) of over 100 µM. The TGI (OVCAR-4 ovarian) was over 100 µM, the TGI (SNB-19 CNS) was over 100 µM and the TGI (COLO 205 colon) was over 100 µM. For the same compound, the TGI (786-0 renal) was over 100 µM, the TGI (NCI-H460 lung) was over 100 µM and the TGI (HS 578T breast) was over 100 µM. It also gave a TGI (M14 melanoma) of over 100 µM, a TGI (NCI/ADR-RES ovarian) of over 100 µM and a TGI (HCT-116 colon) of over 100 µM. It also gave a TGI (MDA-N) of over 100 µM, a TGI (SF-295 CNS) of over 100 µM and a TGI (MCF7 breast) of 65 µM. The TGI (UO-31 renal) was over 100 µM, the TGI (SNB-75 CNS) was over 100 µM and the TGI (BT-549 breast) was over 100 µM. It also gave a TGI (TK-10 renal) of over 100 µM, a TGI (KM12 colon) of over 100 µM and a TGI (MDA-MB-231 breast) of over 100 µM. The TGI (SF-539 CNS) was over 100 µM, the TGI (EKVX NSCLC) was over 100 µM and the TGI (U251 CNS) was over 100 µM. The TGI (SK-MEL-5 melanoma) was over 100 µM, the TGI (HT29 colon) was over 100 µM and the TGI (SK-MEL-28 melanoma) was over 100 µM. For the same compound, the TGI (CAKI-1 renal) was over 100 µM, the TGI (SK-MEL-2 melanoma) was over 100 µM and the TGI (HCT-15 colon) was over 100 µM. The TGI (OVCAR-3 ovarian) was over 100 µM and the TGI (NCI-H23 lung) was over 100 µM.

`COc1ccc(OC)c(C2CCc3cnc4nc(N)nc(N)c4c3C2)c1` (stereo not given) was tested, and the TGI (PC-3 prostate) was over 100 µM, the TGI (HCC-2998 colon) was over 100 µM and the TGI (A549 NSCLC) was over 100 µM. The TGI (UACC-62 melanoma) was over 100 µM, the TGI (K-562 leukemia) was over 100 µM and the TGI (MOLT-4 leukemia) was over 100 µM. It also gave a TGI (OVCAR-8 ovarian) of over 100 µM, a TGI (HOP-92 NSCLC) of over 100 µM and a TGI (NCI-H522 lung) of over 100 µM. It also gave a TGI (MDA-MB-435) of over 100 µM, a TGI (UACC-257 melanoma) of over 100 µM and a TGI (ACHN renal) of over 100 µM. It also gave a TGI (OVCAR-5 ovarian) of over 100 µM, a TGI (SW-620 colon) of over 100 µM and a TGI (IGROV1 ovarian) of over 100 µM. It also gave a TGI (SF-268 CNS) of over 100 µM, a TGI (HL-60(TB) leukemia) of over 100 µM and a TGI (SR leukemia) of over 100 µM. The TGI (HOP-62 NSCLC) was over 100 µM, the TGI (SN12C renal) was over 100 µM and the TGI (RPMI-8226 leukemia) was over 100 µM. It also gave a TGI (T-47D breast) of over 100 µM, a TGI (CCRF-CEM leukemia) of over 100 µM and a TGI (LOX IMVI melanoma) of over 100 µM. For the same compound, the TGI (DU-145 prostate) was over 100 µM, the TGI (OVCAR-4 ovarian) was over 100 µM and the TGI (SNB-19 CNS) was over 100 µM. For the same compound, the TGI (COLO 205 colon) was over 100 µM, the TGI (786-0 renal) was over 100 µM and the TGI (NCI-H460 lung) was over 100 µM. The TGI (RXF 393 renal) was 83.3 µM, the TGI (HS 578T breast) was over 100 µM and the TGI (M14 melanoma) was over 100 µM. The TGI (NCI/ADR-RES ovarian) was over 100 µM, the TGI (HCT-116 colon) was over 100 µM and the TGI (MDA-N) was over 100 µM. The TGI (SF-295 CNS) was over 100 µM, the TGI (SK-OV-3 ovarian) was over 100 µM and the TGI (MALME-3M melanoma) was over 100 µM. For the same compound, the TGI (MCF7 breast) was over 100 µM, the TGI (UO-31 renal) was 85.3 µM and the TGI (SNB-75 CNS) was 50.1 µM. It also gave a TGI (BT-549 breast) of over 100 µM, a TGI (TK-10 renal) of over 100 µM and a TGI (KM12 colon) of over 100 µM. It also gave a TGI (MDA-MB-231 breast) of over 100 µM, a TGI (A498 renal) of over 100 µM and a TGI (EKVX NSCLC) of over 100 µM. The TGI (U251 CNS) was over 100 µM, the TGI (SK-MEL-5 melanoma) was over 100 µM and the TGI (HT29 colon) was over 100 µM. It also gave a TGI (SK-MEL-28 melanoma) of over 100 µM, a TGI (CAKI-1 renal) of over 100 µM and a TGI (SK-MEL-2 melanoma) of over 100 µM. It also gave a TGI (HCT-15 colon) of over 100 µM, a TGI (OVCAR-3 ovarian) of over 100 µM and a TGI (NCI-H23 lung) of over 100 µM.
